Test results as given in PubChem BioAssay AID1845199 (Molecular Pharmacology Branch, DTP, NCI, 2023).

System: 556581-035-R-J1 tumor spheroid viability, % test/control
Assay: Anticancer human tumor 556581-035-R-J1 patient-derived ovarian carcinoma cell line growth inhibition
Settings: spheroids with HUVEC and MSC; for IC50: curve of first compound; for viability, T/C: stronger effect = lower value
Outline: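 Complex spheroids of malignant cells with endothelial cells and mesenchymal stem cells; agents alone or combined, from near clinical Cmax (or 10 microM if unknown) down in half-log steps, 0.25% DMSO final.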

[1] = second compound 1 µM, first compound 0.0316 µM
[2] = second compound 1 µM, first compound 0.1 µM
[3] = second compound 1 µM, first compound 0.316 µM
[4] = second compound 1 µM, first compound 1 µM
[5] = second compound 1 µM, first compound 3.16 µM
[6] = second compound 1 µM, first compound 10 µM
[7] = second compound 3.16 µM, first compound 0.0316 µM
[8] = second compound 3.16 µM, first compound 0.1 µM
[9] = second compound 3.16 µM, first compound 0.316 µM
[10] = second compound 3.16 µM, first compound 1 µM
[11] = second compound 3.16 µM, first compound 3.16 µM
[12] = second compound 3.16 µM, first compound 10 µM
[13] = second compound 10 µM, first compound 0.0316 µM
[14] = second compound 10 µM, first compound 0.1 µM
[15] = second compound 10 µM, first compound 0.316 µM
[16] = second compound 10 µM, first compound 1 µM
[17] = second compound 10 µM, first compound 3.16 µM
[18] = second compound 10 µM, first compound 10 µM
[19] = second compound 31.6 µM, first compound 0.0316 µM
[20] = second compound 31.6 µM, first compound 0.1 µM
[21] = second compound 31.6 µM, first compound 0.316 µM
[22] = second compound 31.6 µM, first compound 1 µM
[23] = second compound 31.6 µM, first compound 3.16 µM
[24] = second compound 31.6 µM, first compound 10 µM
[25] = second compound 100 µM, first compound 0.0316 µM
[26] = second compound 100 µM, first compound 0.1 µM
[27] = second compound 100 µM, first compound 0.316 µM
[28] = second compound 100 µM, first compound 1 µM
[29] = second compound 100 µM, first compound 3.16 µM
[30] = second compound 100 µM, first compound 10 µM
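Further: spheroids exposed to compounds for 7 days before viability read.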

| SMILES | IC50 (second compound 1 µM) [µM] | IC50 (second compound 3.16 µM) [µM] | IC50 (second compound 10 µM) [µM] | IC50 (second compound 31.6 µM) [µM] | IC50 (second compound 100 µM) [µM] | viability, T/C [1] [%] | viability, T/C [2] [%] | viability, T/C [3] [%] | viability, T/C [4] [%] | viability, T/C [5] [%] | viability, T/C [6] [%] | viability, T/C [7] [%] | viability, T/C [8] [%] | viability, T/C [9] [%] | viability, T/C [10] [%] | viability, T/C [11] [%] | viability, T/C [12] [%] | viability, T/C [13] [%] | viability, T/C [14] [%] | viability, T/C [15] [%] | further results |
| --- | --- | --- | --- | --- | --- | --- | --- | --- | --- | --- | --- | --- | --- | --- | --- | --- | --- | --- | --- | --- | --- |
| CC(C)n1c(=O)n(C)c2cnc3cc(F)c(-c4ccc(OCCCN5CCCCC5)nc4)cc3c21 + Cn1nnc2c(C(N)=O)ncn2c1=O | > 10 | > 10 | > 10 | > 10 | > 10 | 109 | 109 | 109 | 106 | 98.5 | 70.2 | 101 | 112 | 101 | 112 | 96.6 | 62.3 | 102 | 109 | 105 | viability, T/C [16]: 104%; viability, T/C [17]: 95.5%; viability, T/C [18]: 67.3%; viability, T/C [19]: 108%; viability, T/C [20]: 106%; viability, T/C [21]: 103%; viability, T/C [22]: 112%; viability, T/C [23]: 92.7%; viability, T/C [24]: 65.8%; viability, T/C [25]: 105%; viability, T/C [26]: 106%; viability, T/C [27]: 99.6%; viability, T/C [28]: 101%; viability, T/C [29]: 90.1%; viability, T/C [30]: 69.1% |
| COc1ccc([C@@H](O)c2cc(-c3ncnc4cc(N5CCOCC5)ccc34)c(F)cc2Cl)nn1 + Cn1nnc2c(C(N)=O)ncn2c1=O | 2.65 | 2.55 | 3.06 | 2.81 | 3.03 | 115 | 111 | 100 | 70.2 | 47.7 | 34.2 | 105 | 114 | 102 | 71 | 47.4 | 36.2 | 126 | 121 | 113 | viability, T/C [16]: 76%; viability, T/C [17]: 51.9%; viability, T/C [18]: 38.2%; viability, T/C [19]: 125%; viability, T/C [20]: 123%; viability, T/C [21]: 114%; viability, T/C [22]: 76.9%; viability, T/C [23]: 48.5%; viability, T/C [24]: 36.2%; viability, T/C [25]: 129%; viability, T/C [26]: 122%; viability, T/C [27]: 117%; viability, T/C [28]: 76.8%; viability, T/C [29]: 51.6%; viability, T/C [30]: 39.3% |
